Data from US12030896B2, “PIKfyve inhibitors” (Mayo Foundation for Medical Education and Research, priority 2018, dated 2024).
Read-outs that look alike come from different tables or passages of the source.

Assay: Pharmacokinetic study of Example 1 in mouse (IV, IP, PO)
Format: in vivo, Male C57BL/6 Mouse
Conditions: male, C57BL/6, mouse, plasma; for AUC(0-inf): read-out: AUC0-inf; for Cmax: read-out: Cmax; for MRT inf: read-out: MRT0-inf; for MRT last: read-out: MRT0-last; for Tmax: read-out: Tmax; for concentration at 0.25 h: 0.250 h; for concentration at 0.5 h: 0.500 h; for C0: read-out: C0; for Vd: read-out: Vdss; for bioavailability: calculated using AUC0-inf or AUC0-last with nominal dose
Procedure: Species: Male C57BL/6 Mouse, fasted.
PK/PD testing of the compound was performed in mice, after IP, IV, or oral administration.

[1] = ip, 30 mg/kg, IP 30 mg/kg, individual mice M4-M6
[2] = ip, 30 mg/kg, IP 30 mg/kg, mean
[3] = iv, 5 mg/kg, IV 5 mg/kg, individual mice M1-M3
[4] = po, 30 mg/kg, PO 30 mg/kg, individual mice M7-M9
[5] = po, 30 mg/kg, PO 30 mg/kg, mean

Q: With Cc1ccc(Nc2nc(N/N=C/c3c[nH]c4ccccc34)nc(N3CCOCC3)n2)cc1 [Example 1, (E)-4-(2-((1H-indol-3-yl)methylene)hydrazinyl)-6-morpholino-N-(p-tolyl)-1,3,5-triazin-2-amine] as the molecule, how does the concentration at 6 h [1] read?
A: Its concentration at 6 h is 97.8 ng/mL.

Q: What about the concentration at 6 h [2] of the same molecule?
A: Its concentration at 6 h is 105 ng/mL.

Q: And the concentration at 24 h [1]?
A: The concentration at 24 h was 35 ng/mL.

Q: What about the concentration at 24 h [2] of the same molecule?
A: The concentration at 24 h was 36.6 ng/mL.

Q: What about the AUC(0-t) [1] of the same molecule?
A: The AUC(0-t) was 2520 ng·h/mL.

Q: What about the AUC(0-inf) [1] of the same molecule?
A: Its AUC(0-inf) is 3060 ng·h/mL.

Q: What about the Cmax [1] of the same molecule?
A: Its Cmax is 443 ng/mL.

Q: What about the MRT inf [1] of the same molecule?
A: The MRT inf was 13 h.

Q: What about the MRT last [1] of the same molecule?
A: The MRT last was 7.2 h.

Q: What about the half-life (ip, 30 mg/kg, IP 30 mg/kg, individual mice M4-M6, read-out: T1/2 (converted)) of the same molecule?
A: Its half-life is 10.9 h.

Q: And the Tmax [1]?
A: The Tmax was 1 h.

Q: What about the AUC(0-t) [2] of the same molecule?
A: The AUC(0-t) was 2850 ng·h/mL.

Q: What about the AUC(0-inf) [2] of the same molecule?
A: The AUC(0-inf) was 3390 ng·h/mL.

Q: What about the Cmax [2] of the same molecule?
A: Its Cmax is 534 ng/mL.

Q: And the MRT inf [2]?
A: Its MRT inf is 12 h.

Q: And the MRT last [2]?
A: The MRT last was 6.91 h.

Q: What about the half-life (ip, 30 mg/kg, IP 30 mg/kg, mean, read-out: T1/2 (converted)) of the same molecule?
A: The half-life was 10.1 h.

Q: What about the Tmax [2] of the same molecule?
A: Its Tmax is 1.33 h.

Q: What about the half-life (ip, 30 mg/kg, IP, single 30 mg/kg dose, read-out: half life (converted)) of the same molecule?
A: The half-life was 10.1 h.

Q: And the concentration at 5 min [3]?
A: The concentration at 5 min was 1300 ng/mL.

Q: And the concentration at 5 min (iv, 5 mg/kg, IV 5 mg/kg, mean)?
A: Its concentration at 5 min is 1630 ng/mL.

Q: What about the concentration at 0.25 h [3] of the same molecule?
A: The concentration at 0.25 h was 1140 ng/mL.

Q: And the concentration at 0.25 h (iv, 5 mg/kg, IV 5 mg/kg, mean)?
A: The concentration at 0.25 h was 1310 ng/mL.

Q: And the concentration at 0.5 h [3]?
A: Its concentration at 0.5 h is 832 ng/mL.

Q: What about the concentration at 0.5 h (iv, 5 mg/kg, IV 5 mg/kg, mean) of the same molecule?
A: The concentration at 0.5 h was 1010 ng/mL.

Q: And the concentration at 1 h [3]?
A: The concentration at 1 h was 529 ng/mL.

Q: What about the concentration at 1 h (iv, 5 mg/kg, IV 5 mg/kg, mean) of the same molecule?
A: Its concentration at 1 h is 599 ng/mL.

Q: And the concentration at 2 h [3]?
A: Its concentration at 2 h is 176 ng/mL.

Q: What about the concentration at 2 h (iv, 5 mg/kg, IV 5 mg/kg, mean) of the same molecule?
A: The concentration at 2 h was 183 ng/mL.

Q: What about the concentration at 4 h [3] of the same molecule?
A: The concentration at 4 h was 17.4 ng/mL.

Q: And the concentration at 4 h (iv, 5 mg/kg, IV 5 mg/kg, mean)?
A: The concentration at 4 h was 16.8 ng/mL.

Q: And the concentration at 6 h [3]?
A: The concentration at 6 h was 5.13 ng/mL.

Q: What about the concentration at 6 h (iv, 5 mg/kg, IV 5 mg/kg, mean) of the same molecule?
A: The concentration at 6 h was 4.2 ng/mL.

Q: What about the AUC(0-t) [3] of the same molecule?
A: Its AUC(0-t) is 1370 ng·h/mL.

Q: What about the clearance [3] of the same molecule?
A: The clearance was 60.5 mL/min/kg.

Q: What about the AUC(0-inf) [3] of the same molecule?
A: The AUC(0-inf) was 1380 ng·h/mL.

Q: And the C0 [3]?
A: The C0 was 1390 ng/mL.

Q: And the MRT inf [3]?
A: Its MRT inf is 0.959 h.

Q: And the MRT last [3]?
A: Its MRT last is 0.936 h.

Q: What about the half-life (iv, 5 mg/kg, IV 5 mg/kg, individual mice M1-M3, read-out: T1/2 (converted)) of the same molecule?
A: Its half-life is 0.71 h.

Q: What about the Vd [3] of the same molecule?
A: Its Vd is 3.48 L/kg.

Q: And the AUC(0-t) (iv, 5 mg/kg, IV 5 mg/kg, mean)?
A: The AUC(0-t) was 1580 ng·h/mL.

Q: And the clearance (iv, 5 mg/kg, IV 5 mg/kg, mean)?
A: Its clearance is 53.4 mL/min/kg.

Q: And the AUC(0-inf) (iv, 5 mg/kg, IV 5 mg/kg, mean)?
A: Its AUC(0-inf) is 1580 ng·h/mL.

Q: And the C0 (iv, 5 mg/kg, IV 5 mg/kg, mean)?
A: The C0 was 1820 ng/mL.

Q: What about the MRT inf (iv, 5 mg/kg, IV 5 mg/kg, mean) of the same molecule?
A: Its MRT inf is 0.899 h.

Q: What about the MRT last (iv, 5 mg/kg, IV 5 mg/kg, mean) of the same molecule?
A: Its MRT last is 0.882 h.

Q: And the half-life (iv, 5 mg/kg, IV 5 mg/kg, mean, read-out: T1/2 (converted))?
A: Its half-life is 0.667 h.

Q: What about the Vd (iv, 5 mg/kg, IV 5 mg/kg, mean) of the same molecule?
A: The Vd was 2.9 L/kg.

Q: And the concentration at 0.25 h [4]?
A: The concentration at 0.25 h was 52.7 ng/mL.

Q: And the concentration at 0.25 h [5]?
A: The concentration at 0.25 h was 59.1 ng/mL.

Q: What about the concentration at 0.5 h [4] of the same molecule?
A: The concentration at 0.5 h was 167 ng/mL.

Q: What about the concentration at 0.5 h [5] of the same molecule?
A: Its concentration at 0.5 h is 122 ng/mL.

Q: And the concentration at 1 h [5]?
A: The concentration at 1 h was 92 ng/mL.

Q: And the concentration at 2 h [5]?
A: The concentration at 2 h was 30.5 ng/mL.

Q: What about the concentration at 4 h [5] of the same molecule?
A: The concentration at 4 h was 7.49 ng/mL.

Q: What about the concentration at 6 h [4] of the same molecule?
A: The concentration at 6 h was 11 ng/mL.

Q: And the concentration at 6 h [5]?
A: Its concentration at 6 h is 10 ng/mL.

Q: And the AUC(0-inf) [4]?
A: Its AUC(0-inf) is 312 ng·h/mL.

Q: And the Cmax [4]?
A: Its Cmax is 167 ng/mL.

Q: And the MRT inf [4]?
A: The MRT inf was 2.1 h.

Q: What about the MRT last [4] of the same molecule?
A: Its MRT last is 1.69 h.

Q: And the half-life (po, 30 mg/kg, PO 30 mg/kg, individual mice M7-M9, read-out: T1/2 (converted))?
A: Its half-life is 1.31 h.

Q: And the Tmax [4]?
A: Its Tmax is 0.5 h.

Q: What about the AUC(0-t) [5] of the same molecule?
A: The AUC(0-t) was 188 ng·h/mL.

Q: And the AUC(0-inf) [5]?
A: The AUC(0-inf) was 211 ng·h/mL.

Q: And the Cmax [5]?
A: Its Cmax is 122 ng/mL.

Q: What about the MRT inf [5] of the same molecule?
A: Its MRT inf is 2.4 h.

Q: And the MRT last [5]?
A: Its MRT last is 1.61 h.

Q: What about the half-life (po, 30 mg/kg, PO 30 mg/kg, mean, read-out: T1/2 (converted)) of the same molecule?
A: The half-life was 1.54 h.

Q: What about the Tmax [5] of the same molecule?
A: Its Tmax is 0.5 h.

Q: What about the bioavailability (IP 30 mg/kg) of the same molecule?
A: Its bioavailability is 35.7%.

Q: What about the bioavailability (PO 30 mg/kg) of the same molecule?
A: Its bioavailability is 2.22%.
